*1 amine or outer side, *2 acyl side, *3 side chain or, on linkers, in order; H or OH if unused. Where a SMILES comes first, the peptide text is derived from it. [ ]: non-standard residue; d: D form. X1 = O=C(c1ccc(-c2ccc(N[*:1])cn2)nc1)[*:2]; βAla = NCCC(=O)O
Legend:
[1] = Fluorescence titration of cyclopeptides with Cu(II) ions (DynaFit fit); format: binding; settings: 2 μM cyclopeptide, 1 mM phosphate buffer, 10 mM NaCl, pH 6.5; 1: 1:2 model (cyclopeptide:metal); 2: simplified model with 1:1 and 2:1 species; read-out: global dissociation constant K D
Description: While the 2,2′-bipyridine ligand is known to be weakly emissive and for all practical purposes considered nonfluorescent, , the 5′-amido-[2,2′-bipyridine]-5-carboxamide unit in the βAlaBpy building block is highly emissive, displaying an intense emission band at c.a. 410 nm with a quantum yield of 0.37. Furthermore, the fluorescence of the βAlaBpy units is quenched upon coordination to a wide range of divalent transition metal ions. We exploited this property to monitor the coordinative properties of cyclopeptides 1 and 2 in the presence of labile Cu(II) ions in aqueous media. Thus, we measured the emission spectra of 2 μM solutions of the cyclopeptides 1 and 2 in 1 mM phosphate buffer and 10 mM NaCl, pH 6.5, upon excitation at 308 nm in the presence of increasing concentrations of Cu(II) ions. […] Therefore, the affinity of the first part of the titrations cannot be determined with this experiment as it is too strong. […]
5.2. Fluorescence titration experiments
Luminescence experiments were made with a Varian Cary Eclipse Fluorescence spectrophotometer coupled to a Cary Single Cell Peltier accessory (Agilent Technologies) temperature controller. […]
emission spectrum was recorded (λex= 308 nm; λem= 410 nm) after each addition. […]

[2] = tested on: HCT-116 (colon carcinoma); settings: 48 h
Description: (§1) IC50 is the concentration at which 50% growth inhibition is obtained and E max represents the efficacy of the compound at its maximum concentration, expressed as the maximum % cell inhibition achieved by the compound (see Section S6 and Figure S8 of the Supporting Information).
(§2) General method: cell lines and grown conditions
(§3) Non-small lung carcinoma NCI-H460, human colon carcinoma HCT-116, human glioma SF-268
(§4) and doxorubicin-resistance human mamma carcinoma NCI/ADR-RES cell lines, as well as
(§5) Eagle’s Minimal Essential Medium (EMEM) and RPMI1640 were purchased from the American Tissue Culture Collection (ATCC). Frozen cells were thawed in a 75 cm2 cell culture flask in RPMI
(§6) supplemented with 2 mM L-glutamine and 10% FBS and maintained at 37 °C in a 5% CO2
(§7) The inhibition of cell proliferation induced by the samples [1/Cu(II), 1 eq. cyclopeptide 1/3 eq. of
(§8) Cu(II); 2/Cu(II), 1 eq. cyclopeptide 2/5 eq. of Cu(II)]‚ was carried out by using MTT method for
(§9) HCT-116, NCI/ADR-RES and NCI-H460 cell lines. SF-268 cell growth inhibition induced by the
(§10) samples was assessed using a system based on crystal violet cell staining and subsequent
(§11) acetylation. Cells were seeded in a 96-well microplate (5000 cells/well for HCT-116, 10000
(§12) cells/well for SF-268 and 15000 cells/well for NCI/ADR-RES and NCI-H460 cell lines) in 100 μl
(§13) of growth medium and maintained at 37 °C for 24 h.
(§14) Then growth medium was replaced by fresh medium containing different concentrations of the
(§15) samples to be assayed and maintained at 37 °C in a 5% CO2 atmosphere for 48 h. After this
(§16) time, 10 μL MTT (5 mg/ml in PBS) were added to each well and maintained for 4 h at 37 °C in a
(§17) 5% CO2 atmosphere. Then 100 μL of 10% SDS in 0.01 M HCl were added to each well an
(§18) incubated for 12-14 h under the same experimental conditions. Absorbance due to formation
(§19) was detected in a Tecan infinity M1000 Pro reader using a wavelength of 595 nm. All assays
were performed with triplicate points.
b) Crystal violet cell staining
(§20) The samples dissolved in water were added, maintaining the same proportion of water in each
(§21) well (10%). After 72 h (at 37°C and in an atmosphere of 5% CO 2/95% air), the cells were fixed to
(§22) the plate with 10 μL of 11% glutaraldehyde solution, kept under agitation at room temperature,
(§23) for 15 minutes. Once fixed, the medium was removed and the cells were washed 3-4 times with
(§24) distilled water, followed by staining of the cells with 100 μL of a 0.1% crystal violet solution. This
(§25) solution was prepared by diluting 0.1g of crystal violet in 100 mL of buffer composed of 200 mM
(§26) phosphoric acid, 200 mM formic acid and 200 mM 2-(N-morpholino)-ethane sulphonic acid
(§27) (MES) at pH 6. The plate was kept shaking at room temperature for 15 minutes. The dye was
(§28) removed, washed 3-4 times with distilled water and dried. 100 μL of 10% acetic acid was then
(§29) added and kept under agitation for 15 minutes, at room temperature, so that the staining was
(§30) homogeneous in all wells. Finally, an absorbance reading of the plates was performed at a
(§31) wavelength of 595 nm (Tecan M1000 Infinite Pro). The assay was performed with triplicate points.
(§32) Data were expressed as the growth inhibition percentage calculated in basis on the equation: %
(§33) inhibition= 100 – [(AO × 100) / AT]. Where AT is the measured absorbance in wells containing
(§34) compounds and AO is the absorbance measured in blank wells (cells with medium and vehicle).
(§35) The inhibitory potency of compounds was calculated by constructing concentration-% growth
(§36) inhibition curves, and extrapolating IC50 values (concentration of compound that inhibits cells

SF-268 (human glioma) = settings: 72 h
Description: as §1, §2, §3, §4, §5, §6, §7, §8, §9, §10, §11, §12, §13, §14, §15, §16, §17, §18, §19
were performed with triplicate points.
b) Crystal violet cell staining
as §20, §21, §22, §23, §24, §25, §26, §27, §28, §29, §30, §31, §32, §33, §34, §35, §36

[3] = tested on: NCI/ADR-RES (doxorubicin resistant ovarian carcinoma); settings: 48 h
Description: as §1, §2, §3, §4, §5, §6, §7, §8, §9, §10, §11, §12, §13, §14, §15, §16, §17, §18, §19
were performed with triplicate points.
b) Crystal violet cell staining
as §20, §21, §22, §23, §24, §25, §26, §27, §28, §29, §30, §31, §32, §33, §34, §35, §36

[4] = tested on: NCI-H460 (lung carcinoma); settings: 48 h
Description: as §1, §2, §3, §4, §5, §6, §7, §8, §9, §10, §11, §12, §13, §14, §15, §16, §17, §18, §19
were performed with triplicate points.
b) Crystal violet cell staining
as §20, §21, §22, §23, §24, §25, §26, §27, §28, §29, §30, §31, §32, §33, §34, §35, §36

[5] = tested on: nontransformed lung fibroblast (MRC-5); settings: 48 h
Description: as §1, §2, §3, §4, §5, §6, §7, §8, §9, §10, §11, §12, §13, §14, §15, §16, §17, §18, §19
were performed with triplicate points.
b) Crystal violet cell staining
as §20, §21, §22, §23, §24, §25, §26, §27, §28, §29, §30, §31, §32, §33, §34, §35, §36

Q: For `N=C(N)NCCC[C@@H]1NC(=O)c2ccc(nc2)-c2ccc(cn2)NC(=O)CCNC(=O)[C@H](CCCNC(=N)N)NC(=O)[C@H](CCCNC(=N)N)NC(=O)[C@H](CCCNC(=N)N)NC(=O)c2ccc(nc2)-c2ccc(cn2)NC(=O)CCNC(=O)[C@H](CCCNC(=N)N)NC(=O)[C@H](CCCNC(=N)N)NC1=O` [compound 1, cyclo-(βAlaBpy-Arg3)2] (cyclo([X1]RRR[βAla][X1]RRR[βAla])), which Kd [1] is on record?
A: Its Kd is 0.39 ± 0.19 µM.

Q: What about the “E max (maximum % cell inhibition)” value [2] of the same compound?
A: Its value is 27 ± 1%.

Q: What about the IC50 [2] of the same compound?
A: The IC50 was greater than 100 µM.

Q: What about the “E max (maximum % cell inhibition)” value (SF-268 (human glioma)) of the same compound?
A: The value was 45 ± 2%.

Q: And the IC50 (SF-268 (human glioma))?
A: Its IC50 is greater than 100 µM.

Q: And the “E max (maximum % cell inhibition)” value [3]?
A: The value was 10 ± 2%.

Q: What about the IC50 [3] of the same compound?
A: Its IC50 is greater than 100 µM.

Q: And the “E max (maximum % cell inhibition)” value [4]?
A: The value was 32 ± 2%.

Q: What about the IC50 [4] of the same compound?
A: Its IC50 is greater than 100 µM.

Q: And the “E max (maximum % cell inhibition)” value [5]?
A: Its value is 24 ± 2%.

Q: And the IC50 [5]?
A: Its IC50 is greater than 100 µM.

From paper PMC12128024, “Copper(II) Cyclopeptides with High ROS-Mediated Cytotoxicity” (Bioconjugate Chemistry, 2025)
